“Also recorded” adds a separate entry of the source.
Assays:
PPC-1 cells [1] = assay: Binding and internalization of peptide-coated quantum dots by PPC-1 cells (confocal/fluorescence microscopy); assay type: cell-based, human; settings: excess of RPARPAR-displaying phage
PC-3 = assay: RPARPAR phage binding to cultured cells at 4° C.; assay type: cell-based, human; settings: PC-3 prostate cancer cells
Protocol: (§1) FIG. 15A: Binding of RPARPAR (SEQ ID NO:2) phage to the cultured cells at 4° C. in vitro. FIG. 15B: Binding of RPARPAR (SEQ ID NO:2) phage to primary cell suspensions of mouse organs at 4° C. ex vivo. FIGS. 15C and 15D: Tissue distribution of intravenously injected RPARPAR (SEQ ID NO:2) phage after 20 minutes of circulation time. FIG. 15C: Phage was quantified by titration, tissue binding is expressed as fold G7 phage. Statistical analysis was performed by Student's t-test (c). n=3; error bars indicate s.d.; double asterisk, p<0.01, triple asterisk, p<0.001. FIG. 15D (panels d and e): Immunofluorescence localization of T7 phage (light coloring) in lung sections of mice injected intravenously with RPARPAR (SEQ ID NO:2) (d) or G7 (e) phage. Widespread immunoreactivity is present in the lungs of mice injected with RPARPAR (SEQ ID NO:2) (arrowheads in d) but not G7 (with occasional labeling seen in vessels, arrows in e). Scale bar: 50 μm.
(§2) Phage display. For in vivo phage display, mice were injected intravenously with 10^10 plaque-forming units (pfu) of T7 phage followed by perfusion of the circulatory system and determination of the bound phage in target organs by titration. For cell binding studies on cultured cells (in vitro display) and organ-derived cell suspensions (ex vivo display), the cells were incubated with 10^9 pfu of phage at 4° C., washed, lysed, and quantified by titration. […]

Du-145 = assay: RPARPAR phage binding to cultured cells at 4° C.; assay type: cell-based, human; settings: Du-145 prostate cancer cells
Protocol: as §1, §2

PPC-1 cells [2] = assay: T7 phage binding to PPC-1 (PPC1) cells at 4° C., quantified by titration/plaque assay; assay type: cell-based, human
Protocol: FIG. 2A: Binding of T7 phage to prostate cancer cells depends on the display of a C-terminal arginine on the phage particles. PPC1 cells were incubated with T7 bacteriophage displaying derivatives of the G7 (upper graph) or RPARPAR peptide (SEQ ID NO: 2) (lower graph) at 4° C., and the bound phage was quantified by plaque assay. Binding is expressed in fold over of the non-binding G7 control phage. FIG. 2B: Phage displaying C-terminal arginine is internalized into cultured PPC1 cells (arrow, nuclear internalization; arrowhead, cytoplasmic internalization). A panel of T7 phage clones were incubated at 37° C. with PPC1 cells grown on collagen-coated coverslips, stained with anti T7 antibody and imaged by confocal microscopy.
(§3) Phage display. For in vivo phage display, mice were injected intravenously with 10^10 plaque-forming units (pfu) of T7 phage followed by perfusion of the circulatory system and determination of the bound phage in target organs by titration. For cell binding studies on cultured cells (in vitro display) and organ-derived cell suspensions (ex vivo display), the cells were incubated with 10^9 pfu of phage at 4° C., washed, lysed, and quantified by titration. Incubation at 37° C. followed by low pH wash (glycine-HCl, pH 2.5) was used to assess the amount of internalized phage.
(§4) For biopanning and phage binding studies (Hoffman, J. A. et al., 2004), cultured cells were grown to confluence and harvested with trypsin and mouse organs were dissociated using Medimachine (BD Biosciences, San Jose, CA). To measure phage binding, 10^6 cells in binding buffer (DMEM containing 1% BSA) were incubated with 10^9 pfu/ml of T7 phage for 1 hour at 4° C. The cells were washed 4 times with the binding buffer, lysed in LB bacterial growth medium containing 1% NP-40, and titrated. Phage internalization assays used the same procedure, except that the cells were incubated with the phage at 37° C., and that an acidic buffer (500 mM sodium chloride, 0.1 M glycine, 1% BSA, pH 2.5) was used instead of binding buffer in the second wash.
Centrifugation on a silicone oil cushion (1.03 g/ml) was used to separate unbound phage from cells during time course experiments. Inhibitors of phage binding and internalization (heparin, chondroitin, glycocalyx removal enzymes, endocytosis inhibitors, free peptides, quantum dots and UV-inactivated phage) were added to the cells 20 minutes prior to incubation with phage. Endocytosis inhibitors used in this study were the following: nystatin (50 μg/ml), genistein (100 μg/ml), chlorpromazine (5 μg/ml), 5-(N-ethyl-N-isopropyl) amiloride (100 μM), wortmannin (10 μM).

[3] = target: T1, triple mutant NS346A-E348A-T349A NRP-1 (Homo sapiens, UniProt O14786, E348A/S346A/T349A); assay: Phage binding to M21 melanoma cells transfected with NRP-1 binding pocket mutant; assay type: cell-based
T1 construct: expressed in transfected cells; host or cells: M21 melanoma cells, transient transfection with lipofectamine; site-directed mutant of the wild-type NRP-1 cDNA in pcDNA3.1(+)
Protocol: FIGS. 18A-18C show the identification and validation of NRP-1 as the CendR receptor. FIG. 18A: Affinity chromatography of proteins interacting with RPARPAR (SEQ ID NO: 2) peptide. PPC-1 tumor tissue was extracted with a 200 mM glucopyranoside buffer, and the extract was incubated with RPARPAR-coated (SEQ ID NO:2) beads, followed by extensive washes, and elution with 2 mM free RPARPAR (SEQ ID NO:2) peptide. Note appearance of a 130 kDa band, identified by mass spectroscopy as NRP-1, starting in the fraction 3 of the eluate. Upper panel—a silver stained gel, lower panel—an immunoblot with anti-NRP-1 antibody. FIG. 18B: Binding of RPARPAR (SEQ ID NO:2) phage to M21 melanoma cells transiently transfected with wild-type NRP-1 (NRP-1), triple mutant NS346A-E348A-T349A NRP-1 (Mutant NRP-1), or parental pcDNA3.1plasmid (Vector), and to non-transfected M21 cells. FIG. 18C: (c, d), Confocal immunofluorescence images of NRP-1 and RPARPAR (SEQ ID NO:2) T7 phage in PPC-1 cells incubated with phage at 37° C. for 40 minutes (c) and 3 hours (d). The phage and NRP-1 co-localize extensively, but there appears to be a progressive decrease in the overlap (arrowheads in c and d) and appearance of structures positive for the phage only (arrows, d). (e) Immunostaining and confocal imaging of RPARPAR (SEQ ID NO:2) phage and NRP-1 in M21 cells transiently transfected with NRP-1. […]

[4] = test system: primary cells derived from normal mouse organs; assay: RPARPAR phage binding to primary cell suspensions of mouse organs at 4° C. ex vivo; assay type: cell-based; settings: panel of normal mouse organs
Protocol: as §1, §2

M21 melanoma cells = assay: RPARPAR phage binding to cultured cells at 4° C.; assay type: cell-based; settings: non-transfected M21
Protocol: as §1, §3, §4

T1 sequence (O14786 22-923 S346A/E348A/T349A): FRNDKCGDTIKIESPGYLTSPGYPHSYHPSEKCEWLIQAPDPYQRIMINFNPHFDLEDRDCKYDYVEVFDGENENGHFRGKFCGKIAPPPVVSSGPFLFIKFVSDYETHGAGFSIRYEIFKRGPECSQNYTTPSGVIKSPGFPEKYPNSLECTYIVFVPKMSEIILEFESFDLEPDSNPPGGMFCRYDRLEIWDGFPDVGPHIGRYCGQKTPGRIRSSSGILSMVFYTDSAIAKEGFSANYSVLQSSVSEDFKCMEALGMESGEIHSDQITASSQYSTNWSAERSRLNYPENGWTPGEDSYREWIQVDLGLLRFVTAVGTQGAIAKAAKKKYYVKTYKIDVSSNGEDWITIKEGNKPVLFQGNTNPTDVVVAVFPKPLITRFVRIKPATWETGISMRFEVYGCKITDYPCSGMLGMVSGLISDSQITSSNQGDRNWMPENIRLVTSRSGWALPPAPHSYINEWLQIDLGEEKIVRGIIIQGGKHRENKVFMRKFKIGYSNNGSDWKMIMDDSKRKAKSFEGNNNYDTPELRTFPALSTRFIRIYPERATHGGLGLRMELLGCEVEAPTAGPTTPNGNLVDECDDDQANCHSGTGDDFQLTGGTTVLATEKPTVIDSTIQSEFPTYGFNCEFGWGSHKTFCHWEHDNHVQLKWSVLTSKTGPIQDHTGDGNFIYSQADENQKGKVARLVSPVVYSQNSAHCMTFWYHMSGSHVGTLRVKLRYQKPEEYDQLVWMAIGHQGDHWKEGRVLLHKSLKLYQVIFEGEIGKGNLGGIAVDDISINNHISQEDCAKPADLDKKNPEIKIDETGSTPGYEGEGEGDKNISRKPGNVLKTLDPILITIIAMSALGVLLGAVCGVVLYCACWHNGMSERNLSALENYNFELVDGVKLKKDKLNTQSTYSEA

RPARPAR [RPARPAR phage]
Effect of pre-incubation of cells with excess phage on RPARPAR-Q-dot internalization (PPC-1 cells [1]): inhibited
Phage binding (PC-3): bound
Phage binding (Du-145): bound
Phage binding to PPC-1 cells (in words) (PPC-1 cells [2]; 4° C.): stronger binding than the GGGGGGR; also recorded: robust binding and internalization
Time to plateau of phage binding (PPC-1 cells [2]; 4° C.): 20 min
Phage binding after trypsin treatment of PPC-1 cells (PPC-1 cells [2]; trypsin treatment of cells prior to binding, data not shown): decreased binding
Phage binding to M21 cells transfected with NRP-1 binding pocket mutant [3]: did not confer
Phage binding [4]: also bound
Phage binding over control phage (M21 melanoma cells): did not bind; also recorded: do not bind nor internalize

Source: patent US12708673B2, “Methods and compositions related to peptides and proteins with c-terminal elements” (Sanford Burnham Prebys Medical Discovery Institute, priority 2008, dated 2026)
